Experiments:
α-glucosidase = system: α-glucosidase; set-up: method as in doi:10.1007/s10600-012-0275-4, PMID 25142941; settings: from the EtOAc fraction of the methanolic extract of C. obtusifolia; cited from earlier work
[1] = biological target: T1, PTP1B (human recombinant) (Homo sapiens, UniProt P18031); experiment: Protein tyrosine phosphatase 1B (PTP1B) inhibition assay with pNPP as substrate; type: biochemical; settings: for PTP1B IC50 (Mean ± SEM) / IC50: pNPP substrate, test concentration up to 100 µg/mL in 10% DMSO, triplicate; for IC50: read-out: PTP1B IC50 (Mean ± SEM) (converted)
T1 construct: purchased Biomol International LP (Plymouth Meeting, PA, USA)
T1 sequence (P18031 1-435): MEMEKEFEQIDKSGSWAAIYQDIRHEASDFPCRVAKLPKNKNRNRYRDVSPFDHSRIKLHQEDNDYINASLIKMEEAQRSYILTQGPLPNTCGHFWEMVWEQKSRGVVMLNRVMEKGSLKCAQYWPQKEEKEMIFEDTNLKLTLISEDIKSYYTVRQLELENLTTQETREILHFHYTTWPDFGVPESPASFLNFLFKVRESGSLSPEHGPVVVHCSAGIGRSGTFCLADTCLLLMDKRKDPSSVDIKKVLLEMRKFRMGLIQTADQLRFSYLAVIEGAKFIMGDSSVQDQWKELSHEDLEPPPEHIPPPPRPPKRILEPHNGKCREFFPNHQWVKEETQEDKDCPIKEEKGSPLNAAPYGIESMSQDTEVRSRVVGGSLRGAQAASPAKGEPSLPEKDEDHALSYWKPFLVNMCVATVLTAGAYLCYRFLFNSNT
Description: The PTP1B inhibitory activities were evaluated using p-nitrophenyl phosphate as the substrate (pNPP) in a procedure reported by Cui et al.. Each well of a 96-well plate (final volume 100 μL) contained were 40 μL of PTP1B enzyme (0.5 units diluted with a PTP1B reaction buffer containing 50 mM citrate (pH 6.0), 0.1 M NaCl, 1 mM EDTA, and 1 mM dithiotheritol (DTT)), to which sample (test concentration up to 100 μg/mL) dissolved in 10% DMSO was or was not added. The plate was pre-incubated at 37 °C for 10 min, and then 50 μL of 2 mM pNPP in PTP1B reaction buffer was added. Following incubation at 37 °C for 30 min, the reaction was terminated with the addition of 10 M NaOH. The amounts of p-nitrophenyl produced after enzymatic dephosphorylation from pNPP was estimated by measuring the absorbance at 405 nm using microplate spectrophotometer (Molecular Devices). The non-enzymatic hydrolysis of 2 mM pNPP was corrected by measuring the increase in absorbance at 405 nm obtained in the absence of PTP1B enzyme. The percent inhibition (%) was obtained by the following equation: % inhibition = (Ac − As)/Ac × 100, where Ac is the absorbance of the control, and As is the absorbance of the sample.

Yeast α-glucosidase [2] = experiment: α-Glucosidase inhibitory assay with pNPG as substrate; type: biochemical; settings: test concentration up to 400 µg/mL in 10% DMSO, triplicate
Description: Enzyme inhibition assays were carried out spectrophotometrically using a procedure reported by Li et al.. A 60 μL reaction mixture containing 20 μL of 100 mM phosphate buffer (pH 6.8), 20 μL of 2.5 mM pNPG, and 20 μL of sample (test concentration up to 400 μg/ml for compounds) dissolved in 10% DMSO was added to each well, followed by the addition of 20 μL of α-glucosidase (0.2 U/mL in 10 mM phosphate buffer (pH 6.8)). The plate was incubated at 37 °C for 15 min, and then 80 μL of 0.2 M sodium carbonate solution was added to stop the reaction. Right after that, the absorbance was recorded at 405 nm using a VERSA max microplate reader (Molecular Devices, Sunnyvale, CA, USA). The control contained the same reaction mixture with the same volume of phosphate buffer instead of sample solution. […] The percent inhibition (%) was obtained using the following equation: % Inhibition = (Ac − As)/Ac × 100, where Ac is the absorbance of the control, and As is the absorbance of the sample.

[3] = system: insulin-resistant HepG2 cells; experiment: 2-NBDG glucose uptake assay in insulin-resistant HepG2 cells; type: cell-based, human; settings: for insulin-stimulated uptake of 2-NBDG: 24 h, compared to the control
Description: The HepG2 (human hepatocarcinoma) cell line was purchased from the American Type Culture Collection (HB-8065, Manassas, VA, USA). Cells were maintained in MEM containing 2.0 mM L-glutamine, 0.1 mM non-essential amino acids, 1.0 mM sodium pyruvate, and 10% FBS at 37 °C in a humidified atmosphere with 5% CO2. The medium was changed every 48 h. […] The establishment of an insulin-resistant HepG2 cell model and glucose uptake was performed according to the reported method, with slight modifications. Briefly, HepG2 cells were cultured in 96-well cluster plates. After reaching confluence, the cells were treated with 10^−6 mol/L insulin for 24 h to induce insulin resistance. […] After this incubation, the 2-NBDG uptake in insulin-resistant HepG2 cells was measured. The cells were incubated with 40 μM 2-NBDG for 30 min. To stop the response, cells were washed with ice-cold PBS and the fluorescence intensity of 2-NBDG was measured on a Synergy HT microplate reader (BioTek Instruments, Winooski, VT, USA) at 485 nm excitation and 528 nm emission. Six replicate wells were established and each experiment was repeated three times.

[4] = biological target: T1, PTP1B (human recombinant); experiment: Enzyme kinetic analysis of PTP1B inhibition (Dixon and Lineweaver-Burk plots); type: biochemical
Description: (§1) Since the Ki value represents the concentration needed to form an enzyme-inhibitor complex, this value plays an important role in the development of preventive and therapeutic agents.
(§2) In order to determine the inhibition mechanism, enzymatic inhibition at various concentrations of alaternin was evaluated by monitoring the effects of different concentrations of the substrates via Dixon plots (single reciprocal plot). Dixon plots of inhibition of PTP1B by alaternin were obtained in the presence of different concentrations of substrate: 1.0, 0.5, and 0.25 mM of pNPP. The test concentrations of alaternin in the PTP1B kinetic analysis were 0, 0.8, and 4.0 µM. Dixon plots of α-glucosidase inhibition by alaternin were performed in the presence of different concentrations of substrate: 2.5, 1.25, and 0.625 mM of pNPG. The test concentrations of alaternin used in the α-glucosidase kinetic analysis were 0.97, 1.95, and 3.90 µM. Both enzymatic procedures consisted of the same, aforementioned PTP1B and α-glucosidase assay methods. The inhibition constants (Ki) were determined by interpretation of the Dixon plots, where the value of the x-axis implies −Ki.

Yeast α-glucosidase [5] = experiment: Enzyme kinetic analysis of α-glucosidase inhibition (Dixon and Lineweaver-Burk plots); type: biochemical; settings: for Inhibition type α-Glucosidase: Dixon plot and Lineweaver-Burk plot
Description: as §1, §2

HepG2 cells = experiment: MTT cytotoxicity assay on HepG2 cells; settings: 24 h
Description: Before determining the insulin resistance of alaternin and emodin, the cytotoxicity of alaternin and emodin on HepG2 cells was first measured by the MTT assay. […] To investigate the ability of alaternin and emodin to increase glucose uptake, a 2-[N-(7-nitrobenz-2-oxa-1,3-diazol-4-yl) amino]-2-deoxy-D-glucose (2-NBDG) uptake assay was performed with insulin-resistant HepG2 cells.

PTP1B = system: PTP1B; set-up: method as in earlier work; settings: cited from earlier work

Row | Compound | PTP1B IC50 (Mean ± SEM) [1] [µg/mL] | α-Glucosidase IC50 (Mean ± SEM) (Yeast α-glucosidase [2]) [µg/mL] | IC50 [1] [µM] | further results
1 | COc1cc(C)cc2c1C(=O)c1c(O)cc(O)cc1C2=O [1-O-methylemodin] | – | – | – | α-glucosidase inhibitory activity (reported) (α-glucosidase): inactive
2 | COc1c(O)c(O)cc2c1C(=O)c1c(O)cc(C)cc1C2=O [2-Hydroxyemodin-1 methylether] | 5.22 ± 0.29 | 5.65 ± 0.20 | – | –
3 | COc1cccc2c1C(=O)c1c(O)cc(C)cc1C2=O [8-O-methyl chrysophanol] | – | – | – | α-glucosidase inhibitory activity (reported) (α-glucosidase): α-glucosidase inhibitors
4 | Cc1cc2c(c(O)c1O)C(=O)c1c(O)cc(O)cc1C2=O [Alaternin, 2-hydroxy emodin] | – | 0.99 ± 0.02 | 4.26 | insulin-stimulated uptake of 2-NBDG ([3]; 12.5, 25, and 50 μM alaternin): significantly enhanced; Inhibition type PTP1B ([4]; Dixon plot and Lineweaver-Burk plot): Competitive; Ki ([4]; Dixon plot, pNPP 1.0, 0.5, 0.25 mM): 1700 nM; PTP1B inhibitory activity compared with emodin ([1]; fold higher than emodin): three-fold higher; Inhibition type α-Glucosidase (Yeast α-glucosidase [5]): mixed type; Inhibition type α-Glucosidase (Yeast α-glucosidase [5]; listed as alaternin): Mixed; Ki (Yeast α-glucosidase [5]; Dixon plot, pNPG 2.5, 1.25, 0.625 mM): 660 nM; concentration without any cytotoxicity (HepG2 cells; HepG2 cells, MTT): up to 50 µM
5 | O=C1c2cccc(O)c2C(=O)c2c(O)cc(CO)cc21 [Aloe-emodin] | – | 1.40 ± 0.27 | 207 | –
6 | COc1c(O)cc2c(c1O)C(=O)c1c(cc(C)c(O)c1OC)C2=O [Aurantio-obtusin] | – | 41.20 ± 0.17 | 82.3 | α-glucosidase inhibitory activity (reported) (α-glucosidase): inactive
7 | COc1cc2c(c(OC)c1OC)C(=O)c1c(cc(C)c(O[C@@H]3O[C@H](CO)[C@@H](O)[C@H](O)[C@H]3O)c1OC)C2=O [Chryso-obtusin-2-glucoside, chryso-obtusin-2-O-β-D-glucoside] | 39.34 ± 1.07 | 178.85 ± 0.55 | – | –
8 | COc1cc2c(c(OC)c1OC)C(=O)c1c(cc(C)c(O)c1OC)C2=O [Chryso-obtusin] | – | 36.01 ± 0.89 | 41.5 | α-glucosidase inhibitory activity (reported) (α-glucosidase): α-glucosidase inhibitors
9 | Cc1cc(O[C@@H]2O[C@H](CO[C@@H]3O[C@H](CO)[C@@H](O)[C@H](O[C@@H]4O[C@H](CO[C@@H]5O[C@H](CO)[C@@H](O)[C@H](O)[C@H]5O)[C@@H](O)[C@H](O)[C@H]4O)[C@H]3O)[C@@H](O)[C@H](O)[C@H]2O)c2c(c1)C(=O)c1cccc(O)c1C2=O [Chrysophanol tetraglucoside] | 103.89 ± 1.22 | 228.79 ± 0.91 | – | –
10 | Cc1cc(O[C@@H]2O[C@H](CO[C@@H]3O[C@H](CO)[C@@H](O)[C@H](O[C@@H]4O[C@H](CO)[C@@H](O)[C@H](O)[C@H]4O)[C@H]3O)[C@@H](O)[C@H](O)[C@H]2O)c2c(c1)C(=O)c1cccc(O)c1C2=O [Chrysophanol triglucoside] | 80.17 ± 1.77 | 197.06 ± 1.09 | – | –
11 | Cc1cc(O)c2c(c1)C(=O)c1cccc(O)c1C2=O [Chrysophanol] | – | 46.81 ± 0.12 | 23 | PTP1B inhibition (previous reports) (PTP1B): inhibited PTP1B
12 | Cc1cc(O)c2c(c1)C(=O)c1cc(O)cc(O)c1C2=O [Emodin, 1,6,8-trihydroxy 3-methyl anthraquinone] | – | 1.02 ± 0.01 | 13 | insulin-stimulated uptake of 2-NBDG ([3]; 3.125, 6.25, and 12.5 μM emodin): significantly enhanced; concentration without any cytotoxicity (HepG2 cells; human): up to 12.5 µM; PTP1B inhibition (previous reports) (PTP1B): inhibited PTP1B
13 | COc1c(O[C@@H]2O[C@H](CO)[C@@H](O)[C@H](O)[C@H]2O)cc2c(c1O)C(=O)c1c(cc(C)c(O)c1OC)C2=O [Gluco-aurantio obtusin] | 31.30 ± 0.97 | 142.19 ± 1.22 | – | –
14 | COc1c(O[C@@H]2O[C@H](CO)[C@@H](O)[C@H](O)[C@H]2O)c(C)cc2c1C(=O)c1c(O)cccc1C2=O [Gluco-obtusifolin] | 53.35 ± 0.44 | 23.77 ± 0.72 | – | –
15 | COc1c(O)c(C)cc2c1C(=O)c1c(O)cccc1C2=O [Obtusifolin] | – | 142.12 ± 0.77 | 124 | α-glucosidase inhibitory activity (reported) (α-glucosidase): inactive
16 | COc1cc2c(c(O)c1OC)C(=O)c1c(cc(C)c(O)c1OC)C2=O [Obtusin] | 6.44 ± 0.22 | 20.92 ± 0.41 | – | –
17 | COc1cc(O)c2c(c1)C(=O)c1cc(C)cc(O)c1C2=O [Physcion] | – | 2.38 ± 0.77 | 25.6 | PTP1B inhibition (previous reports) (PTP1B): inhibited PTP1B; α-glucosidase inhibitory activity (reported) (α-glucosidase): α-glucosidase inhibitors
18 | COc1cc(O)cc2c1C(=O)c1c(O)cc(C)cc1C2=O [Questin] | – | 136.19 ± 0.01 | 20 | –
19 | CN(C)C(=N)N=C(N)N [metformin, reference compound] | – | – | – | insulin-stimulated glucose uptake ([3]; metformin 10 μM, positive control): significantly increased
20 | Cassiaside | 48.55 ± 1.27 | 129.23 ± 0.98 | – | –
21 | Cassitoroside | – | 172.59 ± 0.74 | – | –
22 | Toralactone gentiobioside | 81.15 ± 0.15 | 37.60 ± 0.79 | – | –

From article PMC6155831, “Promising Inhibitory Effects of Anthraquinones, Naphthopyrone, and Naphthalene Glycosides, from Cassia obtusifolia on α-Glucosidase and Human Protein Tyrosine Phosphatases 1B” (Molecules : A Journal of Synthetic Chemistry and Natural …, 2016)
